Test results taken from patent US20020173491A1, “DAPD combination therapy with inosine monophosphate dehydrogenase inhibitor” (priority 2000, published 2002).
Where two headings read alike, the source gives them in different places.

Columns and labels:
xxLAI strain of HIV-1 = test: microbe, parasite or virus in culture; format: cell-based; conditions: for effect of addition of 0.25 μM MPA on anti-HIV activity in PBMCs / effect of addition of 20 μM RBV on anti-HIV activity in PBMCs / Fold difference in EC50, 0.01 μM MPA / Fold difference in EC50, 0.1 μM MPA / Fold difference in EC50, 0.25 μM MPA / Fold difference in EC50, 5 μM RBV / Fold difference in EC50, 10 μM RBV / Fold difference in EC50, 20 μM RBV: PBMC; for effect of addition of 0.25 μM MPA on anti-HIV activity in PBMCs / effect of addition of 20 μM RBV on anti-HIV activity in PBMCs: all the concentrations tested; for Fold difference in EC50, 0.01 μM MPA: control vs with 0.01 μM MPA; for Fold difference in EC50, 0.1 μM MPA: control vs with 0.1 μM MPA; for Fold difference in EC50, 0.25 μM MPA: control vs with 0.25 μM MPA; for Fold difference in EC50, 5 μM RBV: control vs with 5 μM RBV; for Fold difference in EC50, 10 μM RBV: control vs with 10 μM RBV; for Fold difference in EC50, 20 μM RBV: control vs with 20 μM RBV
Experimental: In this assay, cell supernatants were incubated on microelisa wells coated with antibodies to HIV-1 p24 core antigen. Subsequently, anti-HIV-1 conjugate labeled with horseradish peroxidase was added. The labeled antibody bound to the solid phase antibody/antigen complexes previously formed. Addition of the tetramethylbenzidine substrate results in blue color formation. The color turned yellow when the reaction is stopped. The plates were then analyzed on a plate reader set at 490 nm. The absorbance is a direct measurement of the amount of HIV-1 produced in each well and a decrease in color indicates decreased viral production. […] PBMC were obtained from HIV-1 negative donors by banding on Ficoll gradients, stimulated with phytohemaglutinin (PHAP) for 48 hours prior to infection with HIV-1, and infected with virus for 4 hours at 37° C. at a MOI of 0.001. […] Plates were incubated for 3 days at 37° C. The concentration of virus in each well was determined using the NEN p24 assay. Using the absorption values of the cell controls as 100% protection and drug free, virus infected cells as 0% protection, a dose response curve is generated by plotting percent protection on the Y axis and drug concentration on the X axis. From this curve, EC50 values were determined.
Compound dilutions and assay conditions were as described above.
MPA was also tested for activity against the xxLAI strain of HIV-1 in PBMCs using a p24 based Elisa assay. In this assay, cell supernatants are incubated on microelisa wells coated with antibodies to HIV-1 p24 core antigen. Subsequently, anti-HIV-1 conjugate labeled with horse radish peroxidase is added. The labeled antibody binds to the solid phase antibody/antigen complexes previously formed. Addition of the tetramethylbenzidine substrate results in blue color formation. The color turns yellow when the reaction is stopped. The plates are then analyzed on a plate reader set at 490 nm. The absorbance is a direct measurement of the amount of HIV-1 produced in each well and a decrease in color indicates decreased viral production. Dilutions of MPA were made in cell culture media in a 96 well plate, the highest concentration of MPA tested was 1 μM. PBMC were obtained from HIV-1 negative donors by banding on Ficoll gradients, stimulated with phytohemaglutinin (PHAP) for 48 hours prior to infection with HIV-1, and infected with virus for 4 hours at 37° C. at a MOI of 0.001. Infected cells were seeded into 96 well plates containing 4-fold serial dilutions of MPA. Plates were incubated for 3 days at 37° C. The concentration of virus in each well was determined using the NEN p24 assay. Using the absorption values of the cell controls as 100% protection and drug free, virus infected cells as 0% protection, a dose response curve is generated by plotting % protection on the Y axis and drug concentration on the X axis. From this curve EC50 values were determined.
Compound dilutions and assay conditions were as described above. The concentrations of MPA used were 1, 0.5, 0.25, 0.1, and 0.01 μM.

[1] = system: recombinant virus A98S, F116Y, Q151M, T215Y; test: MT2/XTT combination assay, recombinant resistant virus; format: cell-based, HIV-1; conditions: for fold difference from WT: A98S; for EC50: Human immunodeficiency virus 1, A98S
Experimental: (§1) Triplicate samples of compound were tested. MT2 cells were infected with xxLAI at a multiplicity of infection (MOI) of 0.03 for 3 hours at 37° C. in 5% CO2. The infected cells were plated at 3.0×10^4/well into a 96 well plated containing drug dilutions and incubated for 5 days at 37° C. in CO2. […] This method has been modified into a susceptibility assay and has been used in a variety of in vitro antiviral tests and is readily adaptable to any system with a lytic virus (Weislow, O. S., et. al. 1989). Using the absorption values of the cell controls as 100% protection and no drug, virus infected cells as 0% protection, a dose response curve is generated by plotting % protection on the Y axis and drug concentration on the X axis. From this curve EC50 values were determined.
(§2) Assays were performed in the MT2 cell line as described above in the XXT sensitivity assay section.
(§3) The restraint strains analyzed included viruses created by site directed mutagenesis, K65R and L74V, as well as a recombinant virus containing mutations at positions 98S, 116Y, 151M and 215Y. The wild type backbone in which these mutants were created, xxLAI, was also analyzed for comparison. The concentrations of DAPD and DXG tested were as described in the above MT2/XTT combination assay section.
(§4) The concentrations of MPA used were 1, 0.5, 0.25, 0.1, and 0.01 μM. Assays were performed in the MT2 cell line as described in section 3.1.
(§5) The restraint strains analyzed included viruses created by site directed mutagenesis, K65R and L74V, as well as a recombinant virus containing mutations at positions 98S, 116Y, 151M and 215Y. The wild type backbone in which these mutants were created, xxLAI, was also analyzed for comparison. The concentrations of DAPD and DXG tested were as described in section 4.1. MPA was tested in combination with DAPD and DXG at a fixed concentration of 0.25 μM.

HIV-1 mutant L74V = test: MT2/XTT combination assay, resistant virus L74V; format: cell-based; conditions: for EC50: Human immunodeficiency virus 1, L74V; for fold difference from WT: L74V
Experimental: as §1, §2, §3, §4, §5

[2] = Human immunodeficiency virus 1, PBMC, read-out: Mean EC50, Control, PMBCs, no MPA
[3] = Human immunodeficiency virus 1, PBMC, read-out: Mean EC50, Control, PMBCs, no RBV
[4] = read-out: Mean EC50, 0.01 μM MPA, PMBCs, with 0.01 μM MPA
[5] = read-out: Mean EC50, 0.1 μM MPA, PMBCs, with 0.1 μM MPA
[6] = read-out: Mean EC50, 0.25 μM MPA, PMBCs, with 0.25 μM MPA
[7] = read-out: Mean EC50, 1 μM RBV, PMBCs, with 1 μM RBV
[8] = read-out: Mean EC50, 5 μM RBV, PMBCs, with 5 μM RBV
[9] = read-out: Mean EC50, 10 μM RBV, PMBCs, with 10 μM RBV
[10] = read-out: Mean EC50, 20 μM RBV, PMBCs, with 20 μM RBV

Compound	EC50 (xxLAI strain of HIV-1; [2])	EC50 (xxLAI strain of HIV-1; [3])	effect of addition of 0.25 μM MPA on anti-HIV activity in PBMCs (xxLAI strain of HIV-1; with 0.25 μM MPA)	effect of addition of 20 μM RBV on anti-HIV activity in PBMCs (xxLAI strain of HIV-1; with 20 μM RBV)	Fold difference in EC50, 0.01 μM MPA (xxLAI strain of HIV-1)	Fold difference in EC50, 0.1 μM MPA (xxLAI strain of HIV-1)	Fold difference in EC50, 0.25 μM MPA (xxLAI strain of HIV-1)	Fold difference in EC50, 5 μM RBV (xxLAI strain of HIV-1)	Fold difference in EC50, 10 μM RBV (xxLAI strain of HIV-1)	Fold difference in EC50, 20 μM RBV (xxLAI strain of HIV-1)	EC50 (xxLAI strain of HIV-1; [4])	EC50 (xxLAI strain of HIV-1; [5])	EC50 (xxLAI strain of HIV-1; [6])	EC50 (xxLAI strain of HIV-1; [7])	EC50 (xxLAI strain of HIV-1; [8])	EC50 (xxLAI strain of HIV-1; [9])	EC50 (xxLAI strain of HIV-1; [10])	fold difference from WT ([1]; compound alone (Table 4))	fold difference from WT ([1]; compound alone (Table 10))	EC50 ([1]; compound alone (Table 4))	other results
Nc1nc2c(ncn2C2COC(CO)O2)c(=O)[nH]1 (single isomer, unassigned; (-)) [DXG]	140 nM	150 nM	completely inhibited HIV replication	completely inhibited HIV replication	9.3 fold	23.3 fold	>50 fold	5.6 fold	>15 fold	>15 fold	15 nM	6 nM	< 0.2 nM	75 nM	27 nM	< 10 nM	< 10 nM	20 fold	8.4 fold	16000 nM	EC50 ([1]; compound alone (Table 10)): 16000 nM; EC50 (HIV-1 mutant L74V; compound alone (Table 4)): 4500 nM; EC50 (HIV-1 mutant L74V; compound alone (Table 10)): 3800 nM; fold difference from WT (HIV-1 mutant L74V; compound alone (Table 4)): 5.6 fold; fold difference from WT (HIV-1 mutant L74V; compound alone (Table 10)): 4.2 fold
Nc1nc(N)c2ncn(C3COC(CO)O3)c2n1 (single isomer, unassigned; (-)) [DAPD]	4100 nM	4500 nM	completely inhibited HIV replication	completely inhibited HIV replication	4.6 fold	22.8 fold	>50 fold	6.4 fold	28 fold	>150 fold	900 nM	180 nM	< 0.2 nM	2260 nM	700 nM	160 nM	< 30 nM	(>12) fold	6 fold	> 100000 nM	EC50 ([1]; compound alone (Table 10)): 85000 nM; EC50 (HIV-1 mutant L74V; compound alone (Table 4)): 34000 nM; EC50 (HIV-1 mutant L74V; compound alone (Table 10)): 39000 nM; fold difference from WT (HIV-1 mutant L74V; compound alone (Table 4)): (4) fold; fold difference from WT (HIV-1 mutant L74V; compound alone (Table 10)): 4.9 fold
